In patent US7101878B1 (Agouron Pharmaceuticals, Inc., priority 1998, dated 2006):
Like-named read-outs stand apart in the source and are kept apart here.

Target: T1, human GnRH receptor (Homo sapiens, UniProt P30968)
T1 construct: expressed in transfected cells; host or cells: HEK 293 (hGnRH-R/293, from Dr. Stuart Sealfon)
T1 sequence (P30968 1-328): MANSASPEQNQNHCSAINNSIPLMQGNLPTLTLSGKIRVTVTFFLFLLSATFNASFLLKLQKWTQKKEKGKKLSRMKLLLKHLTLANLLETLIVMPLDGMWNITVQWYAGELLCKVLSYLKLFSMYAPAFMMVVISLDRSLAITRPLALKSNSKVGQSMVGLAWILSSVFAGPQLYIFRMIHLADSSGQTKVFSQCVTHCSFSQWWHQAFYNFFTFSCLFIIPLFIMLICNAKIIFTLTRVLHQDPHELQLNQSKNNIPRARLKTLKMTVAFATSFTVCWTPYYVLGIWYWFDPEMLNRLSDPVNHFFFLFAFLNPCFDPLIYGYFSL
Test: Radioligand binding, 125I-GnRH-A displacement, membranes of HEK 293 cells with human GnRH receptor
Method: All compounds were diluted in 1% DMSO (final assay concentration) in binding assay buffer. […] Reactions were terminated by rapid filtration onto 96-well Packard GF/C filters soaked in 0.1% polyethyleneimine. Filters were washed three times with PBS buffer, dried and counted on a Packard Topcount by liquid scintillation counting.
Assay conditions were identical for assessing compound activities at other species. […] IC50 values for control peptides and test compounds were calculated utilizing GraphPad Prism™ software.
Crude compounds were tested using the competitive radioligand binding assay described above.
The reaction mixture was vortexed and incubated for 1 min at room temperature. After one min, the mixture was vortexed and allowed to incubate for an additional minute. 2 ml of 0.5 M acetic acid/1% BSA was added to the reaction tube and the mixture was added to a C18 Sep-Pak cartridge. The cartridge was washed with subsequent washes of 5 ml H2O and 5 ml 0.5M acetic acid and then eluted with 5×1 ml of 60% CH3CN/40% 0.5M acetic acid. The eluate was diluted with 3× volume of HPLC buffer A (0.1% TFA in H2O) and loaded onto a C18 column. The iodinated product was eluted over 20-25 min with a gradient of 25-100% CH3CN containing 0.1% TFA. The radioactive fractions (750 ed/fraction) are collected into clean polypropylene tubes containing 100 μl of 10% BSA. Fractions were assessed for biological activity by radioligand binding.
S%R is the substrate remaining.

[1] = 1 uM, read-out: % Inhib. @ 1 uM hGnRH
[2] = 1 h, repeat of % Inhib. at 1 uM, read-out: Repeats @ 1 uM hGnRH

inhibition at 1 µM [1] [%] | inhibition at 1 µM [2] [%] | Structure (SMILES)
-21 | -26 | Cc1cc2c(cc1Cc1ccc(C(=O)NCC(c3ccccc3)c3ccccc3)o1)C(C)(C)CCC2(C)C
-29 | -31 | Cc1cc2c(cc1Cc1ccc(C(=O)NC3=NN(c4c(Cl)cc(Cl)cc4Cl)C(=O)C3)o1)C(C)(C)CCC2(C)C
-27 | -29 | Cc1cc2c(cc1Cc1ccc(C(=O)Nc3ccccc3C(=O)Nc3cnccn3)o1)C(C)(C)CCC2(C)C
-10 | -8 | Cc1cc2c(cc1Cc1ccc(C(=O)NCCCNCc3ccc(Cl)cc3)o1)C(C)(C)CCC2(C)C
59 | 66 | CC(=O)C1CCN(C(=O)c2ccc(Cc3cc4c(cc3C)C(C)(C)CCC4(C)C)o2)CC1
-29 | -30 | Cc1cc2c(cc1Cc1ccc(C(=O)Nc3nccc(Nc4cc(C(F)(F)F)cc(C(F)(F)F)c4)n3)o1)C(C)(C)CCC2(C)C
-21 | -23 | Cc1cc2c(cc1Cc1ccc(C(=O)NCc3cccc4c3Cc3ccccc3-4)o1)C(C)(C)CCC2(C)C
-12 | -9 | Cc1cc2c(cc1Cc1ccc(C(=O)NCCCCCC(=O)O)o1)C(C)(C)CCC2(C)C
-34 | -38 | Cc1cc2c(cc1Cc1ccc(C(=O)NCc3cc4c5ccccc5n(Cc5cc(Cl)ccc5Cl)c4cn3)o1)C(C)(C)CCC2(C)C
-14 | -5 | Cc1cc2c(cc1Cc1ccc(C(=O)NCCCCCN3CCOCC3)o1)C(C)(C)CCC2(C)C
22 | 25 | Cc1cc2c(cc1Cc1ccc(C(=O)N3CCN(c4nccc(NCC5CCCO5)n4)CC3)o1)C(C)(C)CCC2(C)C (stereo not shown)
-17 | -31 | Cc1cc2c(cc1Cc1ccc(C(=O)NCCc3ccc(-c4ccccc4)cc3)o1)C(C)(C)CCC2(C)C
-5 | 0 | Cc1cc2c(cc1Cc1ccc(C(=O)NCCNCCN3CCCC3)o1)C(C)(C)CCC2(C)C
-21 | -5 | Cc1cc2c(cc1Cc1ccc(C(=O)NC3CCCCC3Cc3nccc(NCC4CCCO4)n3)o1)C(C)(C)CCC2(C)C (stereo not shown)
11 | 13 | Cc1cc2c(cc1Cc1ccc(C(=O)NC3CCCCC3Cc3ccnc(NCC4CCCO4)n3)o1)C(C)(C)CCC2(C)C (stereo not shown)
84 | 89 | Cc1cc2c(cc1Cc1ccc(C(=O)NCC3CCCC(CNc4cccc(NCC5CCCO5)n4)C3)o1)C(C)(C)CCC2(C)C (stereo not shown)
-6 | -7 | Cc1cc2c(cc1Cc1ccc(C(=O)NCCc3c[nH]c4ccc(OCc5ccccc5)cc34)o1)C(C)(C)CCC2(C)C
18 | 22 | Cc1cc2c(cc1Cc1ccc(C(=O)NCCNc3cccc(NCC4CCCO4)n3)o1)C(C)(C)CCC2(C)C (stereo not shown)
-12 | 14 | Cc1cc2c(cc1Cc1ccc(C(=O)NC3CCN(Cc4ccccc4)CC3)o1)C(C)(C)CCC2(C)C
-1 | 12 | Cc1cc2c(cc1Cc1ccc(C(=O)NC(CO)C(O)c3ccccc3)o1)C(C)(C)CCC2(C)C (stereo not shown)
-2 | 3 | Cc1cc2c(cc1Cc1ccc(C(=O)N(Cc3ccccc3)Cc3ccccc3)o1)C(C)(C)CCC2(C)C
-7 | 4 | Cc1cc2c(cc1Cc1ccc(C(=O)N(C)Cc3ccccc3)o1)C(C)(C)CCC2(C)C
16 | 3 | Cc1cc2c(cc1Cc1ccc(C(=O)NC(CO)Cc3ccc(Cl)cc3)o1)C(C)(C)CCC2(C)C (stereo not shown)
13 | 19 | Cc1cc2c(cc1Cc1ccc(C(=O)NC(Cc3ccccc3)c3ccccc3)o1)C(C)(C)CCC2(C)C (stereo not shown)

inhibition at 1 µM [1] [%] | inhibition at 1 µM [2] [%] | Structure (SMILES)
17 | 26 | Cc1cc2c(cc1Cc1ccc(C(=O)NC(CO)c3ccccc3)o1)C(C)(C)CCC2(C)C (stereo not shown)
15 | 26 | Cc1cc2c(cc1Cc1ccc(C(=O)N[C@H](CO)c3ccccc3)o1)C(C)(C)CCC2(C)C
19 | 25 | Cc1cc2c(cc1Cc1ccc(C(=O)N[C@H](C)[C@@H](O)c3ccccc3)o1)C(C)(C)CCC2(C)C
-7 | 4 | Cc1cc2c(cc1Cc1ccc(C(=O)N(C)[C@@H](C)[C@H](C)c3ccccc3)o1)C(C)(C)CCC2(C)C
-11 | -9 | Cc1cc2c(cc1Cc1ccc(C(=O)N(C)[C@@H](C)[C@@H](O)c3ccccc3)o1)C(C)(C)CCC2(C)C
-10 | -6 | Cc1cc2c(cc1Cc1ccc(C(=O)N(C)[C@H](C)[C@H](O)c3ccccc3)o1)C(C)(C)CCC2(C)C
20 | 23 | Cc1cc2c(cc1Cc1ccc(C(=O)N(C)[C@H](C)[C@@H](O)c3ccccc3)o1)C(C)(C)CCC2(C)C
-11 | 24 | COc1ccc(C(O)C(CO)NC(=O)c2ccc(Cc3cc4c(cc3C)C(C)(C)CCC4(C)C)o2)cc1 (stereo not shown)
1 | 41 | Cc1cc2c(cc1Cc1ccc(C(=O)NCc3ccccc3OC(F)(F)F)o1)C(C)(C)CCC2(C)C
-3 | 2 | COc1cccc(OC)c1CNC(=O)c1ccc(Cc2cc3c(cc2C)C(C)(C)CCC3(C)C)o1
-11 | -7 | Cc1cc2c(cc1Cc1ccc(C(=O)N(C)CCc3ccccn3)o1)C(C)(C)CCC2(C)C
-20 | -30 | Cc1cc2c(cc1Cc1ccc(C(=O)N(CCc3ccccc3)Cc3ccccc3O)o1)C(C)(C)CCC2(C)C
10 | 2 | CCN(Cc1ccncc1)C(=O)c1ccc(Cc2cc3c(cc2C)C(C)(C)CCC3(C)C)o1
-7 | 15 | COc1ccccc1CC(C)N(C)C(=O)c1ccc(Cc2cc3c(cc2C)C(C)(C)CCC3(C)C)o1 (stereo not shown)
-7 | 9 | CCCCN(Cc1ccccc1)C(=O)c1ccc(Cc2cc3c(cc2C)C(C)(C)CCC3(C)C)o1
-10 | -5 | Cc1cc2c(cc1Cc1ccc(C(=O)N(CCO)Cc3ccccc3)o1)C(C)(C)CCC2(C)C
-12 | -9 | Cc1cc2c(cc1Cc1ccc(C(=O)N(CC(O)c3ccccc3)C3CCCCC3)o1)C(C)(C)CCC2(C)C (stereo not shown)
31 | 42 | COc1ccc(C(NC(=O)c2ccc(Cc3cc4c(cc3C)C(C)(C)CCC4(C)C)o2)c2ccc(OC)cc2)cc1
-23 | -8 | Cc1cc2c(cc1Cc1ccc(C(=O)NCCC(=O)NC(c3ccccc3)c3ccccc3)o1)C(C)(C)CCC2(C)C
17 | 28 | Cc1cc2c(cc1Cc1ccc(C(=O)NCCCC(=O)NC(c3ccccc3)c3ccccc3)o1)C(C)(C)CCC2(C)C
51 | 54 | Cc1cc2c(cc1Cc1ccc(C(=O)NCc3ccccc3Sc3ccccc3CO)o1)C(C)(C)CCC2(C)C
35 | 36 | Cc1cc2c(cc1Cc1ccc(C(=O)NCCCN(CCO)CCO)o1)C(C)(C)CCC2(C)C
-18 | -7 | Cc1cc2c(cc1Cc1ccc(C(=O)N3CCN(c4ccc(Cl)cc4)C(C)C3)o1)C(C)(C)CCC2(C)C (stereo not shown)
